Test results taken from US20260207606A1, “DOSING SCHEDULE OF A SOLID DISPERSION OF A HER2 INHIBITOR” (Boehringer Ingelheim International GmbH, priority 2022, published 2026).

Test system: NSCLC
Experiment: Phase Ia dose escalation trial: tumour response according to RECIST v1.1 in NSCLC patients
Type: in vivo, human
Conditions: for Best overall response (RECIST 1.1): Complete response, % / Best overall response (RECIST 1.1): Non-CR/Non-PD, % / Best overall response (RECIST 1.1): Not evaluable, % / Best overall response (RECIST 1.1): Partial response, % / Best overall response (RECIST 1.1): Progressive disease, % / Best overall response (RECIST 1.1): Stable disease, %: regardless of confirmation, data lock 16 Mar. 2023
Excerpt: Tumour assessments should include computed tomography (CT) scans of the chest, abdomen/pelvis (or PET/CT) and a brain MRI at screening. If clinically indicated, imaging of any other known or suspected sites of disease (e.g. bone) using an appropriate method (CT scan, MRI, PET/CT, or bone scan) should be performed. The same radiographic procedure must be used throughout the trial. Assessments will be performed by the investigator at screening (≤28 days prior to initiation of treatment), every 2 cycles (6 weeks ±5 days), at the end-of-treatment (EOT) visit (if not performed within the previous 3 weeks), and at the discretion of the investigator, and copies may be collected by the sponsor or designee. Wherever possible the assessment schedule should not be changed, but if there is an interruption or delay to treatment, alteration of the tumour assessment schedule to align with clinical assessments is allowed. Additional unscheduled tumour assessments may be performed at the discretion of the investigator. If the patient stops trial medication for a reason other than progression, tumour assessment according to RECIST v1.1 continues until progression (or until one of the following occurs; death, lost to follow-up, end of the trial).
Tumour response is evaluated according to RECIST Version 1.1 (Eisenhauer E A, Therasse P, Bogaerts J, Schwartz L H, Sargent D, Ford R, et al. New response evaluation criteria in solid tumours: revised RECIST guideline (version 1.1). Eur J Cancer. 2009; 45:228-247). RECIST 1.1 is used for a) whole-body assessment (classical RECIST 1.1) and b) the tumour assessment of non-CNS areas. The assessment according to classical RECIST 1.1 by the investigator and/or the local radiologist is the basis for continuation or discontinuation of the trial in an individual patient (in addition to safety). No whole-body RECIST assessment is performed in the dose escalation part.

[1] = 5 NSCLC patients pre-treated with trastuzumab deruxtecan, data cut-off 17 Jul. 2023

C=CC(=O)NC1CCN(c2ncc3ncnc(Nc4ccc(Oc5ccc6c(c5)ncn6C)c(C)c4)c3n2)CC1 [compound (1), N-{1-[8-({3-methyl-4-[(1-methyl-1H-1,3-benzodiazol-5-yl)oxy]phenyl}amino)-[1,3]diazino[5,4-d]pyrimidin-2-yl]piperidin-4-yl}prop-2-enamide]
Best overall response (RECIST 1.1): Complete response, % (15 mg BID, 1 NSCLC patients): 0.0% | Best overall response (RECIST 1.1): Non-CR/Non-PD, % (15 mg BID, 1 NSCLC patients): 0.0% | Best overall response (RECIST 1.1): Not evaluable, % (15 mg BID, 1 NSCLC patients): 0.0% | Best overall response (RECIST 1.1): Partial response, % (15 mg BID, 1 NSCLC patients): 0.0% | Best overall response (RECIST 1.1): Progressive disease, % (15 mg BID, 1 NSCLC patients): 0.0% | Best overall response (RECIST 1.1): Stable disease, % (15 mg BID, 1 NSCLC patients): 100.0% | Best overall response (RECIST 1.1): Complete response, % (30 mg BID, 2 NSCLC patients): 0.0% | Best overall response (RECIST 1.1): Non-CR/Non-PD, % (30 mg BID, 2 NSCLC patients): 0.0% | Best overall response (RECIST 1.1): Not evaluable, % (30 mg BID, 2 NSCLC patients): 0.0% | Best overall response (RECIST 1.1): Partial response, % (30 mg BID, 2 NSCLC patients): 50.0% | Best overall response (RECIST 1.1): Progressive disease, % (30 mg BID, 2 NSCLC patients): 0.0% | Best overall response (RECIST 1.1): Stable disease, % (30 mg BID, 2 NSCLC patients): 50.0% | Best overall response (RECIST 1.1): Complete response, % (60 mg BID, 3 NSCLC patients): 0.0% | Best overall response (RECIST 1.1): Non-CR/Non-PD, % (60 mg BID, 3 NSCLC patients): 0.0% | Best overall response (RECIST 1.1): Not evaluable, % (60 mg BID, 3 NSCLC patients): 0.0% | Best overall response (RECIST 1.1): Partial response, % (60 mg BID, 3 NSCLC patients): 66.7% | Best overall response (RECIST 1.1): Progressive disease, % (60 mg BID, 3 NSCLC patients): 0.0% | Best overall response (RECIST 1.1): Stable disease, % (60 mg BID, 3 NSCLC patients): 33.3% | Best overall response (RECIST 1.1): Complete response, % (60 mg QD, 2 NSCLC patients): 0.0% | Best overall response (RECIST 1.1): Non-CR/Non-PD, % (60 mg QD, 2 NSCLC patients): 0.0% | Best overall response (RECIST 1.1): Not evaluable, % (60 mg QD, 2 NSCLC patients): 0.0% | Best overall response (RECIST 1.1): Partial response, % (60 mg QD, 2 NSCLC patients): 50.0% | Best overall response (RECIST 1.1): Progressive disease, % (60 mg QD, 2 NSCLC patients): 0.0% | Best overall response (RECIST 1.1): Stable disease, % (60 mg QD, 2 NSCLC patients): 50.0% | Best overall response (RECIST 1.1): Complete response, % (100 mg BID, 3 NSCLC patients): 0.0% | Best overall response (RECIST 1.1): Non-CR/Non-PD, % (100 mg BID, 3 NSCLC patients): 0.0% | Best overall response (RECIST 1.1): Not evaluable, % (100 mg BID, 3 NSCLC patients): 0.0% | Best overall response (RECIST 1.1): Partial response, % (100 mg BID, 3 NSCLC patients): 33.0% | Best overall response (RECIST 1.1): Progressive disease, % (100 mg BID, 3 NSCLC patients): 0.0% | Best overall response (RECIST 1.1): Stable disease, % (100 mg BID, 3 NSCLC patients): 66.7% | Best overall response (RECIST 1.1): Complete response, % (120 mg QD, 4 NSCLC patients): 0.0% | Best overall response (RECIST 1.1): Non-CR/Non-PD, % (120 mg QD, 4 NSCLC patients): 0.0% | Best overall response (RECIST 1.1): Not evaluable, % (120 mg QD, 4 NSCLC patients): 0.0% | Best overall response (RECIST 1.1): Partial response, % (120 mg QD, 4 NSCLC patients): 50.0% | Best overall response (RECIST 1.1): Progressive disease, % (120 mg QD, 4 NSCLC patients): 25.0% | Best overall response (RECIST 1.1): Stable disease, % (120 mg QD, 4 NSCLC patients): 25.0% | Best overall response (RECIST 1.1): Complete response, % (150 mg BID, 2 NSCLC patients): 0.0% | Best overall response (RECIST 1.1): Non-CR/Non-PD, % (150 mg BID, 2 NSCLC patients): 0.0% | Best overall response (RECIST 1.1): Not evaluable, % (150 mg BID, 2 NSCLC patients): 0.0% | Best overall response (RECIST 1.1): Partial response, % (150 mg BID, 2 NSCLC patients): 50.0% | Best overall response (RECIST 1.1): Progressive disease, % (150 mg BID, 2 NSCLC patients): 0.0% | Best overall response (RECIST 1.1): Stable disease, % (150 mg BID, 2 NSCLC patients): 50.0% | Best overall response (RECIST 1.1): Complete response, % (180 mg QD, 5 NSCLC patients): 0.0% | Best overall response (RECIST 1.1): Non-CR/Non-PD, % (180 mg QD, 5 NSCLC patients): 0.0% | Best overall response (RECIST 1.1): Not evaluable, % (180 mg QD, 5 NSCLC patients): 20.0% | Best overall response (RECIST 1.1): Partial response, % (180 mg QD, 5 NSCLC patients): 20.0% | Best overall response (RECIST 1.1): Progressive disease, % (180 mg QD, 5 NSCLC patients): 0.0% | Best overall response (RECIST 1.1): Stable disease, % (180 mg QD, 5 NSCLC patients): 60.0% | Best overall response (RECIST 1.1): Complete response, % (240 mg QD, 5 NSCLC patients): 0.0% | Best overall response (RECIST 1.1): Non-CR/Non-PD, % (240 mg QD, 5 NSCLC patients): 0.0% | Best overall response (RECIST 1.1): Not evaluable, % (240 mg QD, 5 NSCLC patients): 60.0% | Best overall response (RECIST 1.1): Partial response, % (240 mg QD, 5 NSCLC patients): 40.0% | Best overall response (RECIST 1.1): Progressive disease, % (240 mg QD, 5 NSCLC patients): 0.0% | Best overall response (RECIST 1.1): Stable disease, % (240 mg QD, 5 NSCLC patients): 0.0% | Best overall response (RECIST 1.1): Complete response, % (300 mg QD, 5 NSCLC patients): 0.0% | Best overall response (RECIST 1.1): Non-CR/Non-PD, % (300 mg QD, 5 NSCLC patients): 0.0% | Best overall response (RECIST 1.1): Not evaluable, % (300 mg QD, 5 NSCLC patients): 80.0% | Best overall response (RECIST 1.1): Partial response, % (300 mg QD, 5 NSCLC patients): 0.0% | Best overall response (RECIST 1.1): Progressive disease, % (300 mg QD, 5 NSCLC patients): 0.0% | Best overall response (RECIST 1.1): Stable disease, % (300 mg QD, 5 NSCLC patients): 20.0% | tumour shrinkage, mean [1]: −22.5% | tumour shrinkage, median [1]: −16.1% | tumour shrinkage, up to [1]: −53% | Best overall response (RECIST 1.1): Complete response, % (BID Total, 11 NSCLC patients): 0.0% | Best overall response (RECIST 1.1): Non-CR/Non-PD, % (BID Total, 11 NSCLC patients): 0.0% | Best overall response (RECIST 1.1): Not evaluable, % (BID Total, 11 NSCLC patients): 0.0% | Best overall response (RECIST 1.1): Progressive disease, % (BID Total, 11 NSCLC patients): 0.0% | Best overall response (RECIST 1.1): Stable disease, % (BID Total, 11 NSCLC patients): 54.5% | Best overall response (RECIST 1.1): Complete response, % (QD Total, 21 NSCLC patients): 0.0% | Best overall response (RECIST 1.1): Non-CR/Non-PD, % (QD Total, 21 NSCLC patients): 0.0% | Best overall response (RECIST 1.1): Not evaluable, % (QD Total, 21 NSCLC patients): 38.1% | Best overall response (RECIST 1.1): Partial response, % (QD Total, 21 NSCLC patients): 28.6% | Best overall response (RECIST 1.1): Progressive disease, % (QD Total, 21 NSCLC patients): 4.8% | Best overall response (RECIST 1.1): Stable disease, % (QD Total, 21 NSCLC patients): 28.6% | median duration of response (Kaplan Meier estimates) (all treated patients with NSCLC): 6.9 months
